Data from paper PMC13441969, “Zero-shot design of drug-binding proteins via neural iterative selection−expansion” (Nature, 2026).
“Also recorded” adds a separate entry of the source. Structures can show the parent of a compound that is named as a salt.

Columns and labels:
EPIC = assay: Fluorescence anisotropy of fluorescent ligands binding to EPIC; settings: for Kd / binding of ligand to EPIC (words): [ligand] = 50 nM; for Kd: 1:1 binding model; for binding of ligand to EPIC (words): dexamethasone and apixaban as FITC conjugates
Protocol: including the ProteinMPNN-designed sequences along with the Ala/Gly versions, are available […]
Fluorescence Polarization Experiments to Determine Binding Affinities
We performed fluorescence anisotropy experiments in a 384 -well plate -reader format to determine the binding affinities of protein s with various ligands (Supp. Fig. 15 and Supp. Table 6). We serially diluted an initial solution containing a high concentration of protein while keeping a constant concentration of ligand (50 nM) in each well. The buffer for these assays was composed of 1x PBS, pH 7.4, and 0.1% w/v PEG-8000. Camptothecin-class molecules (exatecan, camptothecin, belotecan, FL118, irinotecan) were excited at a wavelength of 360 nm using a BMG LabTech PHERAstar FSX plate reader or a BMG LabTech CLARIOstar Plus plate reader. We detected the resulting parallel and perpendicularly polarized emission at 440 nm. […]
excited using 482 nm filter (16 nm bandwidth) using a BMG LabTech CLARIOstar Plus plate reader, and parallel and perpendicularly polarized emissions were detected through a 530 nm filter (40 nm bandwidth). Data was fit using the quadratic form of a single-site binding model.
Gain settings for each molecule were calculated by auto-adjusting the focus on a well containing free ligand and buffer, setting the millipolarization (mP) of free ligand to mP = 35.
Fits to Fluorescence Anisotropy Data
Data from fluorescence anisotropy (r) experiments, which varied total protein concentration, [P]T for a fixed total ligand concentration, [L]T, was fit to a single-site binding […]
model (Equations 1 and 2, N = 1). […] For
EPIC and its mutants, confidence intervals of the fit parameters were determined from bootstrapping the residuals of the optimum fit (random residual selection with replacement) to create 1000 synthetic datasets, which were each separately fit to Equations 1 and 2. Parameter means and 95% confidence intervals were determined from the distribution of the parameters computed from the bootstrapped fits.
We performed separate protein titrations across three fixed exatecan concentration s (25 , 12.5 , and 5 nM) and measured fluorescence anisotropy of exatecan as a function of protein concentration . For each EPIC mutant, the dissociation constant (Kd) and anisotropy baseline (A min) were shared parameters across the three exatecan concentrations. Anisotropy maxima (Amax) and ligand concentration ([L]T) were fit locally. We fit the ligand concentrations locally (to within 15% of the target concentration) to account for experimental discrepancies. Code for performing the fitting is provided in Zenodo16. […]

[1] = Exatecan lactone hydrolysis by time-resolved absorbance; assay type: physicochemical; settings: room temperature, pH 7.4; 3 half-lives
[2] = set-up: method as in PMID 35318309, PMID 31620223; settings: read-out: cellular half-maximum inhibitory concentration (IC50); cited from earlier work
[3] = set-up: method as in PMID 11595695; settings: cited from earlier work

| Structure (SMILES) | ΔΔG (change in binding free energy) relative to the exatecan–EPIC complex (EPIC) [kcal/mol] | Kd (EPIC) [µM] | binding of ligand to EPIC (words) (EPIC) | further results |
| --- | --- | --- | --- | --- |
| CC[C@@]1(O)C(=O)OCc2c1cc1n(c2=O)Cc2cc3cc4c(cc3nc2-1)OCO4 [FL118] | 2.3 | 6 |  |  |
| COc1ccc(-n2nc(C(N)=O)c3c2C(=O)N(c2ccc(N4CCCCC4=O)cc2)CC3)cc1 [apixaban, Apixaban] |  |  | no appreciable binding; also recorded: does not bind |  |
| COc1ccc(-n2nc(C(=O)NCCOCCOCCNC(=S)Nc3ccc(-c4c5ccc(=O)cc-5oc5cc(O)ccc45)c(C(=O)O)c3)c3c2C(=O)N(c2ccc(N4CCCCC4=O)cc2)CC3)cc1 [apixaban-peg-FITC] |  |  | did not show any experimentally detectable binding |  |
| CC[C@@]1(O)C(=O)OCc2c1cc1n(c2=O)Cc2c-1nc1ccccc1c2CCNC(C)C [belotecan, Belotecan hydrochloride] | 3.0 | 19 |  |  |
| CC[C@@]1(O)C(=O)OCc2c1cc1n(c2=O)Cc2cc3ccccc3nc2-1 [camptothecin, Camptothecin] | 3.9 | 90 |  |  |
| C[C@@H]1C[C@H]2[C@@H]3CCC4=CC(=O)C=C[C@]4(C)[C@@]3(F)[C@@H](O)C[C@]2(C)[C@@]1(O)C(=O)CO [dexamethasone] |  |  | no binding; also recorded: does not bind | binding of ligand to EPIC (words) (EPIC; listed as Dexamethasone): no appreciable binding |
| CC[C@@]1(O)C(=O)OCc2c1cc1n(c2=O)Cc2c-1nc1cc(F)c(C)c3c1c2[C@@H](N)CC3 [exatecan, Exatecan mesylate] |  | 0.12 |  | time for nearly complete conversion from C to O form [1]: ≤ 6 h; fold tighter binding of EPIC to exatecan than to any other ligand tested (EPIC): at least 50 fold; IC50 [2]: ~0.001 µM; half-life of hydrolysis of free drug in plasma ([3]; plasma): around 2 h; steady-state level of lactone form in human plasma ([3]; within 10 h): 15% |
| CCc1c2c(nc3ccc(OC(=O)N4CCC(N5CCCCC5)CC4)cc13)-c1cc3c(c(=O)n1C2)COC(=O)[C@]3(O)CC [irinotecan] |  |  | not to bind; also recorded: no appreciable binding | binding of ligand to EPIC (words) (EPIC; listed as Irinotecan): negligible binding |
